Patent US20180110762A1, “Compositions Methods for Treating Chronic Kidney Disease” (Merck Sharp & Dohme Corp, priority 2015, published 2018)

Columns and labels:
human podocytes = test: Oris cell migration assay, PAN-induced podocyte motility, vitronectin coated plate; format: cell-based; conditions: 48 h; for % migrated cells vs control cells: VN plate
Method: The effects of Compound A on podocyte motility were evaluated using Oris cell migration assay kit in 96-well plates (coated with either vitronectin or fibronectin). The Oris™ Cell Migration Assay is designed with a unique cell seeding stopper or biocompatible gel, detection mask, and stopper tool. These unique plate designs generate highly reproducible results using a microscope, digital imaging system. 7 to 10-day differentiated human podocytes (100 ul of 50,000 cells/ml) were seeded in each well of the ORIS plate. After sitting at room temperature for about 15 minutes, the plate was placed into 37° C. incubator and podocytes were incubated with complete podocyte medium for 24 h. Stoppers from each well (keeping stoppers in 4 wells which were served as time zero control) were carefully removed, medium discarded, and fresh (10% FBS) podocyte medium added to each well. Podocytes were pretreated with Compound A (10 uM to 0.01 nM) for 2 h prior to puromycin animonucleoside (PAN, 30 ug/ml or 15 ug/ml) treatment. Podocytes were then treated with PAN in the presence or absence of Compound A at different concentrations (ranging from 10 uM to 0.01 nM) in 10% FBS medium for 48 h. Podocytes were then fixed with 4% paraformaldehyde in PBS for 30 minutes (adding 50 ul to each well). After discarding the fixative, podocytes were stained with Hoechst 33342 (stock […] working concentration at 5 uM) for 30 min. Podocytes were then washed with PBS three times. Finally, after adding 100 ul of PBS to each well, plate was sealed with a black cover and kept at 4° C. until image analysis. Images of podocyte motility were captured using Acumen eX3 (manufacturer TTP Labtech Ltd. address: Melbourn Science Park, Melbourn, Hertfordshire SG8 6EE, United Kingdom).
Effect of Compound A (“A”) on human podocyte motility was examined using Oris cell migration assay in vitronectin (VN) coated-96-well plate.

[1] = system: male obese ZSF1 rats (diabetic nephropathy model); test: ZSF1 rat study: GFR measurement by FITC-sinistrin clearance; format: in vivo
Method: The effects of Compound A (“A”) on renal function, plasma triglycerides, plasma cholesterol, kidney collagen I, kidney collagen III, renal histology, glomerular filtration rate, fibrosis score, and mRNA gene expression (profibrotic genes and integrin β3) were evaluated in male obese ZSF1 rats (a hybrid F1 of Zucker diabetic fatty rat and spontaneously hypertensive heart failure rat; a diabetic nephropathy model) when administered as in-feed for 28 weeks. Sixty obese male ZSF1 rats were randomized to five groups: Obese control (n=12), Compound A 60 mpk (n=12), Compound A 200 mpk (n=12), Compound A 400 mpk (n=12), Enalapril 10 mpk (n=12); Eight lean male ZSF1 rats were used for normal control. Renal functional changes were monitored by blood and urine analysis following in-feed dosing for 28 weeks. Compound exposure was also monitored during the study.
For the measurement of GFR, a miniaturized device (NIC-Kidney, Mannheim Pharma & Diagnostics, Mannheim, Germany) was used. In brief, the device (batteries, diodes, and microprocessor) containing an optical component was affixed on a depilated region of the back using a double-sided sticky patch (Lohmann GmbH KG, 56567, Neuwied, Germany) under isofluorane anesthesia (3% isoflurane mixed with oxygen). After a resting baseline period of 1-1.5 minutes, a bolus of FITC-sinistrin (5 mg/100 g body weight, dissolved in 0.5 mL sterile isotonic saline) was injected through the tail vein. The rat was then placed in a clean cage for recovery from anesthesia to responsible ambulation. […] The excretion kinetics of FITC-sinistrin was determined using a sampling rate of 60 measurements per minute with an excitation time of 10 milliseconds per measurement for 120 minutes after the injection. One compartment model was used for FITC-sinistrin clearance. After completion of GFR measurement, the device was gently removed from the skin and the rat returned to its home cage.

postmenopausal women = conditions: Phase II study; cited from earlier work
[2] = molecular target: T1, Human recombinant integrin αvβ3 (Homo sapiens, UniProt P05106+P06756); test: Solid phase receptor assay, αvβ3 (vitronectin); format: binding
T1 construct: purchased R&D Systems
Method: The assay was performed according to the method described in International Patent Publication WO 2014/015054 A1 “Beta Amino Acid Derivatives As Integrin Antagonists.” Briefly, 96-well plates were coated overnight with purified fibronectin or vitronectin (R&D Systems) in TBS+ buffer (25 mM Tris 7.4, 137 mM NaCl, 2.7 mM KCl, 1 mM CaCl2, 1 mM MgCl2, 1 mM MnCl2). Compound A was added at different concentrations to recombinant human integrin proteins (R&D Systems) reconstituted in TBS+/0.1% bovine serum albumin, and 50 μL of this mixture were added to the empty wells of the coated plate and incubated for 1-2 hours. After 3 washes, 50 μL of biotinylated antibody (R&D Systems) in TBS+/0.1% bovine serum albumin were added. The procedure continued with three more washes, addition of 50 μL of streptavidin-conjugated horseradish peroxidase (R&D Systems), and incubation for 20 minutes. After 3 more washes, 50 μL of tetramethylbenzidine (TMB) substrate (SIGMA) were added and plates were read after 20 min by colorimetric detection at 650 nm wavelength in an EnVision Multilabel Plate Reader (Perkin Elmer). The concentrations of fibronectin used were: 2 μg/mL for the α5β1 assay and 5 μg/mL for the αvβ1 assay. The concentrations of vitronectin used were: 1 μg/mL for the αvβ3 assay and 0.25 μg/mL for the αvβ5 assay. […]

[3] = obese ZSF1 rats, 200 mpk in-feed, week 28
[4] = obese ZSF1 rats, 400 mpk in-feed, week 28

T1 sequence (P06756 31-992 limits assumed): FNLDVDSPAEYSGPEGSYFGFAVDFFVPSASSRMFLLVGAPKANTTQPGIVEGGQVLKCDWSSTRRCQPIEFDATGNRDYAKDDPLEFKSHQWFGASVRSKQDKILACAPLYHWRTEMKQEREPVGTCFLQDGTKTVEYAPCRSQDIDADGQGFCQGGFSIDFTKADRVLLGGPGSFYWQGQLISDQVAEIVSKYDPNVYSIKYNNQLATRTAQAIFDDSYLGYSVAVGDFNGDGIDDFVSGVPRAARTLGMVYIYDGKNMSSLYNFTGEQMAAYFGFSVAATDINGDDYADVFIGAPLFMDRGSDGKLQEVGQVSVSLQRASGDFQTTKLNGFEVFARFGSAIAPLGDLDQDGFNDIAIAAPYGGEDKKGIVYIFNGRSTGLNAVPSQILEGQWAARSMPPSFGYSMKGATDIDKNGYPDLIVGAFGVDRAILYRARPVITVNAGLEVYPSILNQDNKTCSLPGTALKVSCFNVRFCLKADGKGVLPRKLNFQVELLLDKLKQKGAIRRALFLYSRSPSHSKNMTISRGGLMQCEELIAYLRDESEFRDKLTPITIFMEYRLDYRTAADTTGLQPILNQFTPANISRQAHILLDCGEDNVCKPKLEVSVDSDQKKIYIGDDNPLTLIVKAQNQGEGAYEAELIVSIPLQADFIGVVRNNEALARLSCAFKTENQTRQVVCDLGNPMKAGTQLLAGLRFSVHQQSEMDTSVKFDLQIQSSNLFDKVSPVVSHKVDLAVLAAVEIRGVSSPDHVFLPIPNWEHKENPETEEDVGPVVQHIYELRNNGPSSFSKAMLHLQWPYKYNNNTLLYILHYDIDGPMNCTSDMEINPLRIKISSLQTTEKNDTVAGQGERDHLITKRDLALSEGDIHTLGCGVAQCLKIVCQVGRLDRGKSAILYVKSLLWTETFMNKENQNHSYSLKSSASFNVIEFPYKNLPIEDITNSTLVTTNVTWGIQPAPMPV
T1 sequence (P05106 27-718 limits assumed): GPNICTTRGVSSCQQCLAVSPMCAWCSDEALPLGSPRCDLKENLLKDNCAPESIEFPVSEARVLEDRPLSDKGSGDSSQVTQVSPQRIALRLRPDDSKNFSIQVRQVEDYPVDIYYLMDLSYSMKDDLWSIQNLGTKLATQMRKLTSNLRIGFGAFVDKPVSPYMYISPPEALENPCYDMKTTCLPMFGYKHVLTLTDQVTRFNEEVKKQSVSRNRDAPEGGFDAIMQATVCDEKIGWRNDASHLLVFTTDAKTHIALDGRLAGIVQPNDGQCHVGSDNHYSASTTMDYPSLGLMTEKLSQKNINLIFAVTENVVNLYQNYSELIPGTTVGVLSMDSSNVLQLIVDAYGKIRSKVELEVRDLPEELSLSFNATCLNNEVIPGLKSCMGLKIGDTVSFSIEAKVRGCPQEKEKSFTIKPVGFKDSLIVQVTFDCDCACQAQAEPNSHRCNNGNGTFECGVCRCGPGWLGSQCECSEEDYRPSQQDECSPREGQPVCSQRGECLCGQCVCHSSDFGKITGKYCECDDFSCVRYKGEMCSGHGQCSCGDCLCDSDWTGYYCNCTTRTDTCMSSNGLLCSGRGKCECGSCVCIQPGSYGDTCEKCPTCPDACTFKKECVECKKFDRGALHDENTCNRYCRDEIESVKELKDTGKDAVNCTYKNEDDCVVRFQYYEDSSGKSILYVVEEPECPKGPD

Structure (SMILES): COc1ccc([C@H](CC(=O)O)N2CCN(CCCc3ccc4c(n3)NCCC4)C2=O)cn1 [Compound A, 3-{2-Oxo-3-[3-(5,6,7,8-tetrahydro-[1,8]naphthyridin-2-yl)-propyl]imidazolidin-1-yl}-3 (S)-(6-methoxy-pyridin-3-yl)-propionic acid]
- IC50 (human podocytes; Homo sapiens, vitronectin coated plates, PAN 30 ug/ml, read-out: IC50, inhibition of puromycin-induced human podocyte motility): 9.94 nM
- % migrated cells vs control cells (human podocytes; PAN 30 ug/ml + A 0.01 nM): 55.1%
- % migrated cells vs control cells (human podocytes; PAN 30 ug/ml + A 0.0316 nM): 44.0%
- % migrated cells vs control cells (human podocytes; PAN 30 ug/ml + A 0.1 nM): 43.0%
- % migrated cells vs control cells (human podocytes; PAN 30 ug/ml + A 0.316 nM): 36.6%
- % migrated cells vs control cells (human podocytes; PAN 30 ug/ml + A 1 nM): 42.1%
- % migrated cells vs control cells (human podocytes; PAN 30 ug/ml + A 3.16 nM): 31.3%
- % migrated cells vs control cells (human podocytes; PAN 30 ug/ml + A 10 nM): 28.6%
- % migrated cells vs control cells (human podocytes; PAN 30 ug/ml + A 100 nM): 19.6%
- % migrated cells vs control cells (human podocytes; PAN 30 ug/ml + A 1 uM): 16.1%
- % migrated cells vs control cells (human podocytes; PAN 30 ug/ml + A 10 uM): 16.9%
- effect on glomerular filtration rate ([1]; 60 mpk, 200 mpk and 400 mpk at weeks 28-30): no significant effect
- Glomerular Filtration Rate ([1]; ZSF-1 rats vs untreated obese ZSF-1 rats (summary)): non-statistically significant improvements in glomerular filtration rate
- Glomerular Filtration Rate ([1]; obese ZSF1 rats, 60 mpk in-feed, week 28): 609.8 ± 42.1 uLs/Min/100 gm BW
- FITC-sinistrin clearance, % change of improvement compared to Obese Vehicle group [1, 3]: 8.8%
- Glomerular Filtration Rate [1, 3]: 663.2 ± 50.6 uLs/Min/100 gm BW
- FITC-sinistrin clearance, % change of improvement compared to Obese Vehicle group [1, 4]: 14.4%
- Glomerular Filtration Rate [1, 4]: 697.5 ± 37.9 uLs/Min/100 gm BW
- bone density (postmenopausal women): increase bone density
- IC50 ([2]; αvβ3, first of two experiments): 5.2 nM
- IC50 ([2]; αvβ3, second of two experiments): 0.33 nM
